The values below come from ChEMBL document CHEMBL5214898 (J Med Chem, 2021).

Series [1] is described as follows: Cmax in Wistar Han rat plasma 10 mg/kg, po measured for 15 to 1440 mins by LC-MS/MS analysis. Format: ADME, organism-based.
The nature of series [2]: Half life in Wistar Han rat plasma 2 mg/kg, iv by LC-MS/MS analysis. Format: ADME, organism-based.
Series [3] is described as follows: Clearance in Wistar Han rat plasma 2 mg/kg, iv measured for 2 to 1440 mins by LC-MS/MS analysis. Format: ADME, organism-based. To be noted: time 2-1440 min.
Series [4] is described as follows: Oral bioavailability in Wistar Han rat plasma 10 mg/kg measured for 15 to 1440 mins by LC-MS/MS analysis relative to control. Type of series: ADME, organism-based. To be noted: time 15-1440 min.
Series [5] in a line: Drug uptake in Wistar Han rat plasma 10 mg/kg, po measured after 24 hrs mins by LC-MS/MS analysis. Type of series: ADME, organism-based.
The nature of series [6]: Tmax in Wistar Han rat plasma 10 mg/kg, po measured for 15 to 1440 mins by LC-MS/MS analysis. As to conditions: time 15-1440 min. Type of series: ADME, organism-based.
Series [7] can be described thus: AUC in Wistar Han rat plasma 10 mg/kg, po measured for 15 to 1440 mins by LC-MS/MS analysis. Format: ADME, organism-based.
Series [8] in a line: Cmax in Beagle dog plasma 2 mg/kg, po measured for 15 to 1440 mins by LC-MS/MS analysis. Format: ADME, organism-based, Canis lupus familiaris.
Series [9] is described as follows: AUC in Beagle dog plasma 2 mg/kg, po measured for 15 to 1440 mins by LC-MS/MS analysis. Format: ADME, organism-based, Canis lupus familiaris.
Series [10] is described as follows: Oral bioavailability in Beagle dog plasma 2 mg/kg measured for 15 to 1440 mins by LC-MS/MS analysis relative to control. Type of series: ADME, organism-based, Canis lupus familiaris. To be noted: time 15-1440 min.
Series [11] is described as follows: Clearance in Beagle dog plasma 1 mg/kg, iv measured for 2 to 1440 mins by LC-MS/MS analysis. Format: ADME, organism-based, Canis lupus familiaris. As to conditions: time 2-1440 min.
A short description of series [12]: Half life in Beagle dog plasma 1 mg/kg, iv by LC-MS/MS analysis. Format: ADME, organism-based, Canis lupus familiaris.
Series [13] can be described thus: Drug uptake in Beagle dog plasma 2 mg/kg, po measured after 24 hrs mins by LC-MS/MS analysis. Format: ADME, organism-based, Canis lupus familiaris.
Series [14] can be described thus: Tmax in Beagle dog plasma 2 mg/kg, po measured for 15 to 1440 mins by LC-MS/MS analysis. Format: ADME, organism-based, Canis lupus familiaris. As to conditions: time 15-1440 min.
Series [15] in a line: Drug uptake in rat at 10 mg/kg measured after 24 hrs. To be noted: in vivo, read-out: Drug uptake. Type of series: ADME, organism-based.
Series [16] can be described thus: Unbound Cmax in rat at 10 mg/kg. To be noted: in vivo. Format: ADME, organism-based.
Series [17] in a line: Drug uptake in rat assessed as unbound concentration at 10 mg/kg measured after 24 hrs. Type of series: ADME, organism-based. As to conditions: in vivo.
Series [18] in a line: Cmax in rat at 10 mg/kg. Format: ADME, organism-based. The arrangement: dose 10 mg/kg. As to conditions: in vivo.

On to `CCC(=O)CCCCC[C@H](NC(=O)[C@H]1CC12CCN(CC)CC2)c1ncc(-c2cc3cn(C)nc3cc2OC)o1`, for which the Cmax – broadly, the peak of the concentration-time curve – in [1] came out at 510 nM. Moreover, the half-life (usually the time needed for the level to fall by half in the phase considered) in [2] was 5.1 h. In addition, the clearance (commonly a measure of how efficiently the substance is removed, as volume per time) in [3] came out at 49 mL/min/kg. For the same compound, the bioavailability (in general, dose-corrected exposure relative to a reference, in per cent) in series [4] was 37%. In series [5], this compound registered a concentration at 24 h of 3.6 nM. Besides, the time to peak (Tmax) (commonly the time from dosing to the highest level) in [6] amounted to 4 h. For the same compound, the AUC – broadly, the area under the concentration-time curve, a measure of exposure – in [7] was determined as 2.3 µM·h.
Take `CCC(=O)CCCCC[C@H](NC(=O)[C@H]1CC12CCN(CC)CC2)c1ncc(-c2cc3ccc(C)nc3cc2OC)o1`: the Cmax is 150 nM in [1] and 15 nM in series [8]. The half-life in [2] is 5.4 h; in series [12], 91 h. Further, the values for the AUC in series [9] and in series [7] were 0.07 µM·h and 1.1 µM·h, respectively. Further, the clearance in series [3] was found to be 65 mL/min/kg; in [11], 2.9 mL/min/kg. Also, the bioavailability in series [4] was 25%; in series [10], 11%. The concentration at 24 h is 2 nM in [13] and 7.2 nM in [5]. Also, the time of peak concentration (Tmax) turned out to be 3 h in [14] and 5 h in [6].
In series [1], `CCC(=O)CCCCC[C@H](NC(=O)[C@H]1CC12CCN(C)CC2)c1ncc(-c2ccc3nc(C)ccc3c2)[nH]1` returned a Cmax of 4 nM. In series [2], this compound had a half-life of 2.9 h. Further, the clearance in series [3] was determined as 45 mL/min/kg. The bioavailability in [4] was 0.1%. In addition, in [6], the Tmax was 0.3 h. This compound also returned an exposure (AUC) in series [7] of 0.01 µM·h.
`CCC(=O)CCCCC[C@H](NC(=O)[C@H]1CC12CCN(C(C)C)CC2)c1ncc(-c2cc3ccc(C)nc3cc2OC)[nH]1` gave a peak concentration (Cmax) in [1] of 9 nM. For the same compound, the half-life in series [2] was 24 h. The same compound gave a clearance in series [3] of 60 mL/min/kg. The same compound registered a bioavailability in series [4] of 0.6%. The compound also yielded a concentration at 24 h in [5] of 1 nM. In [6], the Tmax worked out at 2.1 h. The same compound showed an AUC in [7] of 0.02 µM·h.
Compound `CCC(=O)CCCCC[C@H](NC(=O)[C@H]1CC12CCN(C)CC2)c1ncc(-c2cc3ccc(C)nc3cc2F)o1` showed a Cmax in series [1] of 63 nM. The half-life in series [2] is 1.9 h. In [3], the clearance was determined as 71 mL/min/kg. In series [4], this compound came in with a bioavailability of 6.9%. In series [5], this compound gave a concentration at 24 h of 1 nM. Moreover, the time to peak (Tmax) in series [6] stood at 2 h. For the same compound, the AUC in [7] is 0.3 µM·h.
In the case of `CCC(=O)CCCCC[C@H](NC(=O)[C@H]1CC12CCN(C)CC2)c1ncc(-c2cc3ccccc3nc2OC)[nH]1`, in series [15], the concentration at 24 h came out at 9 nM. In series [16], the fCmax is 7.5 nM. The “Drug uptake(free)” value in [17] came out at 0.11 nM. In series [18], this compound returned a Cmax of 627 nM.
For the compound `CCC(=O)CCCCC[C@H](NC(=O)[C@H]1CC12CCN(C)CC2)c1ncc(-c2cc3ccc(C)nc3cc2OC)[nH]1`, the Cmax in series [1] was 170 nM. In series [2], this compound had a half-life of 33 h. This compound also yielded a clearance in series [3] of 12 mL/min/kg. Also, the bioavailability in series [4] is 2.5%. The compound also gave a concentration at 24 h in series [5] of 8.9 nM. Besides, the Tmax in series [6] was determined as 5 h. The compound further gave an exposure (AUC) in series [7] of 0.98 µM·h.
As for `CCC(=O)CCCCC[C@H](NC(=O)[C@H]1CC12CCN(C)CC2)c1ncc(-c2cc3cccnc3cc2OC)[nH]1`, the maximum concentration (Cmax) in [1] was 20 nM. The half-life in series [2] is 9.5 h. This compound registered a clearance in [3] of 61 mL/min/kg. The bioavailability in [4] amounted to 2%. Further, in series [5], the concentration at 24 h worked out at 1 nM. In series [6], the Tmax is 2.1 h. Also, in series [7], the exposure (AUC) amounted to 0.06 µM·h.
With `CCC(=O)CCCCC[C@H](NC(=O)[C@H]1CC12CCN(CC)CC2)c1ncc(-c2cc3ccc(C)nc3cc2OC)[nH]1`, the Cmax was determined as 97 nM in series [1] and 26 nM in [8]. The half-life is 13 h in series [2] and 19 h in series [12]. Besides, the AUC in series [9] stood at 0.1 µM·h; in [7] it was 0.47 µM·h. The clearance in series [3] turned out to be 51 mL/min/kg; in [11], 24 mL/min/kg. The values for the bioavailability in series [4] and in series [10] were 7.9% and 4.1%, respectively. The concentration at 24 h in [13] was determined as 1.2 nM; in series [5], 3.2 nM. For the same compound, the Tmax in [14] is 1.3 h; in series [6] it was 2.1 h.
Turning to `CCC(=O)CCCCC[C@H](NC(=O)[C@H]1CC12CCN(CC)CC2)c1ncc(-c2cc3cccnc3nc2OC)o1`, in series [1], the Cmax was 2100 nM. Also, the half-life in series [2] is 3.9 h. The compound further registered a clearance in series [3] of 6 mL/min/kg. Besides, the bioavailability in [4] turned out to be 20%. The compound further showed a concentration at 24 h in series [5] of 9.2 nM. For the same compound, the time to peak (Tmax) in series [6] came to 3 h. In addition, the AUC in [7] worked out at 9.7 µM·h.
`CCC(=O)CCCCC[C@H](NC(=O)[C@H]1CC12CCN(C)CC2)c1ncc(-c2cc3ccc(C)nc3cc2OC)o1`: the figures for the peak concentration (Cmax) in series [1] and in series [8] were 2500 nM and 72 nM, respectively. The half-life in series [2] was 4.8 h; in [12], 43 h. Also, the area under the curve (AUC) in [9] amounted to 0.57 µM·h; in series [7] it was 10 µM·h. The clearance in series [3] was found to be 25 mL/min/kg; in series [11] it was 6 mL/min/kg. For the same compound, the bioavailability in series [4] was found to be 78%; in series [10] it was 42%. Also, the concentration at 24 h in series [13] was 3.3 nM; in [5] it was 28 nM. Besides, the time of peak concentration (Tmax) in [14] worked out at 3 h; in series [6], 4 h.
With `CCC(=O)CCCCC[C@H](NC(=O)[C@H]1CC12CCN(CC)CC2)c1ncc(-c2cc3ccn(CC)c(=O)c3cc2OC)o1`, in series [1], the Cmax worked out at 120 nM. Further, in [2], the half-life was 6.5 h. In [3], this compound had a clearance of 100 mL/min/kg. The compound further had a bioavailability in series [4] of 22%. In addition, the concentration at 24 h in series [5] worked out at 2.2 nM. The time of peak concentration (Tmax) in series [6] was found to be 5 h. Besides, the exposure (AUC) in series [7] was 0.6 µM·h.
